Usually Km stands for the substrate concentration at which the rate is half of its maximum. A word on the Vmax: it is the rate approached at saturating substrate. The term melting point denotes the temperature of the solid-liquid transition.

Series [1] relates to FAAH. To be noted: from Ramarao et al. (AAMCA), De Bank et al. (oleamide); cited from earlier work.
The subject of series [2] is FAAH. Kind of series: FAAH kinetic data of literature substrates. It is filed as biochemical. To be noted: Vmax/Km of substrate over that of oleamide (5.5 × 10^−2).
The test system of series [3] is amidases, human liver microsomes. The series is described as follows: Specific activity, human liver microsomes. It is filed as biochemical. To be noted: pH 8.0, 37° C.; NM = not measurable at the same protein concentration as other substrates. The procedure:
(§1) Comparison of the lowest detection limits of protein concentration of FAAH toward colorimetric and fluorescent substrates. In general, all assays were performed in 96-well styrene flat-bottom microtiter plates with a Spectra Max M2 spectrophotometer at 37° C. for […]. The total volume of each well was 201 μl consisting of 0.1 M sodium phosphate buffer (pH 8.0) (190 μl) containing 1% glycerol and 0.1% Triton-X 100, stock or diluted protein solution (10 μl), and the substrate solution (1 μl) in ethanol (final concentration 200 μM for 10, 11, 13 or 14) or in DMSO (final concentration 25 μM for 12, 15, or 16; 50 μM for 17). The lowest detection limits of microsomal fatty acid amide hydrolase (FAAH) by substrates were determined by the fact that the signal at 10 min after kinetic measurements are equal to or over three times the noise or basal line at 0 min. Colorimetric substrate (16) assays were performed in clear 96-well microtititer plates using an absorbance wavelength at 382 nm. The fluorescent substrates containing 5-amino-2-methoxypyridine (e.g., 10, 13) were measured at an excitation wavelength (302 nm), emission wavelength (396 nm), and auto cutoff wavelength (325 nm). Similarly, the fluorescent substrates containing 5-amino-2-methoxy-6-methylpyridine (e.g., 11, 14, and 17) were measured at an excitation wavelength (304 nm), emission wavelength (392 nm), and an auto cutoff wavelength of 325 nm. In addition, an excitation wavelength (366 nm), emission wavelength (496 nm), and auto cutoff wavelength (495 nm) were used for the substrates (e.g., 12 and 15) containing 7-amino-4-trifluoromethyl coumarin.
Specific activity determination. The assays for specific activities were performed as described above for the sensitivity assay. The specific activity presented is based on the following: 1) the signal after a 10 min enzymatic reaction was at least 3 fold the baseline signal at 0 min, and 2) the amount of hydrolyzed substrate during a 10 min period was less than 10% of the total amount of the substrate added. To correct for protein-induced fluorescence quenching, a standard curve of 5-amino-2-methoxypyridine (6) or 5-amino-2-methoxy-6-methylpyridine (8) was constructed in the presence of the same protein concentration used for the assay of that enzyme.
A general note: Microsomes from liver hold many membrane-bound enzymes, among them those of drug oxidation.

The subject of series [4] is amidases, human liver S9. Kind of series: Specific activity, human liver S9. The following applies: pH 8.0, 37° C.; NM = not measurable at the same protein concentration as other substrates. It is filed as biochemical. As to the method: as §1, with “Similarly, the fluorescent substrates containing 5-amino-2-methoxy-6-methylpyridine (e.g., 11, 14, and 17) were measured at an excitation wavelength (304 nm), emission wavelength (392 nm), and an auto cutoff wavelength of 325 nm. In addition, an excitation wavelength (366 nm), emission wavelength (496 nm), and auto cutoff wavelength (495 nm) were used for the substrates (e.g., 12 and 15) containing 7-amino-4-trifluoromethyl coumarin.” left out

A short description of series [5]: Maximal excitation and emission wavelengths. It is filed as physicochemical. To be noted: 50 μM in 0.1 M phosphate buffer, 30° C.; SD ±2 nm. As to the method: Maximal excitation and emission wavelengths. A stock solution in ethanol of each compound (10 μl, 5 mM) was added to 990 μl of sodium phosphate buffer (0.1 M, pH 8.0, final substrate concentration 50 μM) in a 1-cm quartz cuvette. The quartz cuvette was scanned from 200 to 500 nm for absorption spectra with a Spectra Max M2 spectrophotometer. Maximal excitation and emission wavelengths were obtained from scanning from 250 to 600 nm and 360 to 600 nm by a 2 nm interval at 30° C., respectively.

The nature of series [6]: Fluorescence quantum yield. To be noted: 10 μM, 1% ethanol in water, excitation 290 nm, standard 3-aminopyridine; SD under ±5%. It is filed as physicochemical. The procedure: Quantum yield. The fluorescence quantum yield, φf, was calculated according to the following equation:
ØF=Østd*(I/Istd)*(ODstd/OD)*(n/nstd)^2,
wherein ØF is the quantum yield of the tested fluorescent reporter; Østd is the fluorescence quantum yield of the standard; I and Istd are the integrated emission intensities of the sample and the standard, respectively; OD and ODstd are the absorbance of the sample and standard, respectively, at the desired wavelength λex; and n and nstd are the indexes of refraction of the sample and standard solutions, respectively (Horspool and Song (Eds.), CRC Handbook of Organic Photochemistry I, pp 234-235, CRC Press, Boca Raton, Fla., 1995).
In this example, 3-aminopyridine in water at the maximal excitation wavelength of 290 nm was used as a standard (Østd=0.32, εmax=2800 M^−1 cm^−1) (see, e.g., Weisstuch et al., J. Phys. Chem., 72:1982-1987 (1968)). In order to minimize inner filter effects, the optical densities of samples at the excitation wavelength (λ=290 nm) were kept in the range of 0.095-0.13 (less than 0.150-0.165). The final concentration of each tested sample in a quartz cuvette was 10 μM with 1% ethanol in water, same as that for the standard. The integrated area of fluorescent intensity for the standard or the samples was based on the area between 360 and 500 nm. The difference of the index of refraction between the standard and the sample was neglected because (1) all measurements were performed in the same quartz cuvette and spectrofluorimeter; (2) the final concentrations of the sample and the standard were the same; and (3) the structures of the sample and standard were very similar, i.e., only one pyridine ring. The quantum yields presented in Table 1 were based on calculation of the average of OD and integrated fluorescent intensities of triplicates. The standard deviation for each quantum yield was less than ±5%.

Series [7] in a line: Dependence of relative fluorescent intensity on pH values. It is filed as physicochemical. The following applies: pH 6.0 to 9.0, sodium phosphate or Tris/HCl buffer, 25 μM. The procedure: The dependence of relative fluorescent intensity on pH values. 5-amino-2-methoxypyridine (6) was used to determine whether protonization/de-protonization affects the relative fluorescent intensities of the reporters. A stock solution of (6) in ethanol (5 μl, 5 mM) was added to 995 μl 0.1 M sodium phosphate buffer (from pH 6.0 to pH 8.0) or 0.1 M Tris/HCl buffer (pH 9.0) in a quartz cuvette (final substrate concentration 25 μM). Relative fluorescent unit/intensity (RFU) for emission spectra was recorded by a 2 nm interval at room temperature using a fixed excitation wavelength (λ=302 nm). The RFU of each pH value was an average of triplicates and the standard deviation for each point was less than 1%. Similarly, the RFU of the excitation spectrum was recorded by a 2 nm interval at room temperature using a fixed emission wavelength (λ=396 nm) in 0.1 M phosphate buffer (pH 8.0).

Series [8] can be described thus: Molar extinction coefficient of fluorescent reporters. It is filed as physicochemical. To be noted: H2O containing 1% ethanol, 290 nm, 30° C., 10-50 μM. As to the method: Molar extinction coefficient. According to Beer's law, Aλ=ε*C*L, where Aλ is the absorbance at wavelength (λ nm); ε is called the molar extinction coefficient; L is the width of the sample cuvette; and C is the concentration of the solute. In this example, a series of concentrations falling between 10 and 50 μM (final concentration) for each fluorescent reporter was used for determination of the molar extinction coefficient. Assays were performed in a quartz cuvette (1 cm optical passage). 10 μl of a stock solution of a reporter in ethanol (1, 2, 3, 4, or 5 mM) was added to 990 μl H2O. The resulting mixture was degassed by sonication with ultrasonic cleaner Model 750 (VWR International; Wester, Pa.) for 10 seconds at a power level of 9. Measurements were performed with a Spectra Max M2 spectrophotometer (Molecular Devices; Sunnyvale, Calif.) at a wavelength of 290 nm. A slope (or extinction coefficient) was obtained by using an average absorbance of triplicate samples.

Molecules are shown by their SMILES.

Regarding `CCCCCC=CCC=CCC=CCC=CCCCC(=O)Nc1ccc2c(C)cc(=O)oc2c1` [AAMCA, arachidonyl 7-amino-4-methylcoumarin amide], in series [1], the Km was 0.48 µM and the Vmax is 0.058 nmol/min/mg. Also, the Selectivity ratio in series [2] turned out to be 2.2.
Compound `CC(=O)Nc1ccc2c(C(F)(F)F)cc(=O)oc2c1` [Compound 12, N-(4-(trifluoromethyl)-2-oxo-2H-chromen-7-yl) acetamide] displayed a melting point of 109.3 to 111.4 °C. In addition, the “Specific activity, Human liver microsomes” value in [3] came to 0.66 ± 0.06 nmol/min/mg protein. In [4], the “Specific activity, Human liver S9” value is on record as 0.18 ± 0.02 nmol/min/mg protein.
For `CCCCCCCC/C=C\CCCCCCCC(N)=O` [Oleamide, oleamide], in series [1], the Km was 104 µM and the Vmax is 5.7 nmol/min/mg. In addition, the Selectivity ratio in [2] was 1.0.
On to `COc1ccc(N)cn1` [Compound 6, 5-amino-2-methoxypyridine], for which, in series [5], the “Em, maximal emission wavelength” value is given as 396 nm and the “Ex, maximal excitation wavelength” value is listed as 302 nm. Besides, the “ØF, fluorescence quantum yield” value in series [6] is reported as 0.95. In addition, the “relative fluorescent intensity of excitation or emission as function of pH” value in series [7] is “increased with an increase of pH value”. Moreover, the “εmax, molar extinction coefficient” value in series [8] stood at 2340 M⁻¹ cm⁻¹.
